# In US20120095325A1, “TREATMENT OF BRAIN DISEASES VIA ULTRASOUND/MAGNETIC TARGETING DELIVERY AND TRACING OF THERAPEUTIC AGENTS” (Chang Gung Medical Foundation, Linkou Branch, priority 2010, published 2012):
# Assays:
# Rat glioma C6 cells = experiment: Cell toxicity in vitro, XTT assay; format: cell-based; details: 12 hrs, no magnetic field
# Protocol: Rat glioma C6 cells were cultured in the culture medium RPMI 1640 supplemented with 2.2 mg/mL sodium carbonate, 10% FBS, 50 μg/mL gentamycin, 50 μg/mL penicillin and 50 μg/mL streptomycin at 37° C. and 5% CO2. Approximately 10,000 cells were placed in each well of a 96-well culture plate and incubated in a humidified chamber at 37° C. and 5% CO2 for 24 hrs.
# Before counting viable cells by the XTT assay, the culture medium in each well was removed and cells were incubated in 120 μL of XTT for 3 hrs. After the reaction, a 100 μL aliquot of the solution in each well was sampled and transferred to a 96-well counting dish, followed by measuring absorbance at OD490 using an ELISA reader, so as to determine cell viability (%). The experimental results were expressed as mean±SD. The in vitro cytotoxicities of MNPs, epirubicin and epirubicin-MNPs on C6 cells were evaluated by the IC50 values thereof.
# in vivo = details: Sprague-Dawley, rat
# Protocol: All animal experiments were approved by the Institutional Animal Care and Use Committee of Chang Gung University and adhered to their experimental animal care guidelines. […] Brain tumors were induced in another 14 rats by injection of cultured C6 tumor cells. Briefly, C6 tumor cells (10^6 cells/plate) were injected into the brains using a microdialysis pump system (CMA Microdialysis). Animals underwent FUS treatment on Day 10 after tumor implantation to determine if the method could open an area of the BBB sufficiently large to cover the area of the induced tumors.
# Before the FUS treatment, the rats were anesthetized by i.p. injection of chlorohydrate (30 mg/kg). The top of the cranium of each rat was shaved with clippers, and a PE-50 catheter was inserted into the jugular vein. The animal's head was attached tightly to a 4-cm^2 thin-film window directly under an acrylic water tank. The animal's cranial opening was filled with degassed water to serve as an acoustic coupling device. SonoVue® SF6-coated US microbubbles (mean diameter 2-5 μm, 2.5 μg/kg; Bracco) were administered i.v. before sonication (with a time lapse<10 s). Each bolus injection contained 0.1 mL of microbubble/kg of body weight mixed with 0.2 mL of saline solution. A heparin flush (0.2 mL) was subsequently performed.
# Animal experiments were monitored using the 3-T magnetic resonance imager to localize the geometric center of the FUS and the energy exposure site. US was delivered to the brain transcranially using a MR-compatible spherical transducer (diameter, 60 mm; radius of curvature, 80 mm; frequency, 400 kHz, electric-to-acoustic efficiency, 70%; Imasonics) with the center of the focal zone positioned at a penetration depth of 2 to 3 mm in each hemisphere. Single burst-mode US was delivered, with a burst length of 10 ms, a pulse-repetition frequency of 1 Hz, and total sonication duration of 120 s. For optimization studies, the input electric power used was 2 W, corresponding to an acoustic negative peak (i/e., spatial-peak, temporal-peak) pressure amplitude measured through the animal cranium equal to 0.62 MPa.
# In the MT treatment, a permanent magnet having a peak magnetic flux density of 0.18 T, 0.4 T or 0.55 T was used to produce an inhomogeneous magnetic field. To concentrate the magnetic flux density onto the disrupted region of the BBB, the magnet was tilted at an angle relative to the animal's brain, attached to the animal's scalp, and supported and tightened using a custom-made plastic belt for the desired duration (3-24 hrs). MRI images were acquired immediately after removal of the magnet.
# Animals' brains were monitored by MRI after the FUS treatment and/or the MT treatment. All MRI images were acquired on a 3-T scanner using the standard wrist coil with an inner diameter of 13 cm. The animals were anesthetized with 2% isoflurane throughout the MRI imaging process, placed in an acrylic holder, and positioned in the center of the magnet. An i.v. bolus (0.1 mmol/kg) of gadopentetate dimeglumine MRI contrast agent (Magnevist; Berlex) was administered before scanning. To identify the region of the BBB disrupted by the FUS treatment, contrast-enhanced T1 turbo spin-echo sequences were acquired using the following parameters: repetition/echo time, 780 ms/15 ms; slice thickness, 1.4 mm; matrix size, 128×256; field of view, 39×60 mm (resolution, 0.3×0.3 mm). T2-weighted images were obtained to produce R2 maps both in gel phantom or in vivo experiments by using a double-TE spinecho sequence and acquired three times, using the following parameters: repetition time, 3,860 ms, echo time, 8/14, 28/57, and 85/228 ms; matrix, 128×256; field of view, 38×76 mm (resolution, 0.3×0.3 mm); and slice thickness, 1.4 mm.
# breast carcinoma = details: cited from earlier work
# [1] = cited from earlier work
structure (smiles),measurement,setting,value
COc1cccc2c1C(=O)c1c(O)c3c(c(O)c1C2=O)C[C@@](O)(C(=O)CO)C[C@@H]3O[C@H]1C[C@H](N)[C@@H](O)[C@H](C)O1 [epirubicin],IC50,Rat glioma C6 cells,6.7 µg/mL
same,concentration at 6 hr,in vivo,21700 ng/g
same,epirubicin accumulated in tissue,in vivo,"1,336±1,182 ng epirubicin per gram of tissue"
same,epirubicin concentration measured in tissues per iron (range),in vivo,383-415 μg epirubicin/mg iron ion
same,"epirubicin delivered, assessed by ICP-OES/HPLC",in vivo,"1,162±1,028 ng/g"
same,"epirubicin delivered, assessed by MRI",in vivo,"1,197±226 ng/g"
same,mean immobilization ratio in tissues,in vivo,395.6±17.3 μg epirubicin/mg iron ion
COc1cccc2c1C(=O)c1c(O)c3c(c(O)c1C2=O)C[C@@](O)(C(=O)CO)C[C@@H]3O[C@H]1C[C@H](N)[C@H](O)[C@H](C)O1 [doxorubicin],therapeutic range reported in vivo,"breast carcinoma; human, in vivo",819±482 ng/g tumor
same,clinical response rate,breast carcinoma; patients with breast carcinoma,39%
same,doxorubicin delivered into normal brains by FUS,[1]; FUS treatment used safely,886±327 ng doxorubicin per gram of tissue
same,doxorubicin delivery by FUS,"[1]; increased delivery, at the expense of increased damage to brain tissue","5,336±659 ng/g"
